Reference: patent US12383531B2, “PLA2 inhibitors for treatment of pathological conditions caused by hymenoptera envenomation, such as hemolysis, cerebral edema, and acute kidney injury” (Ophirex, Inc., priority 2016, dated 2025)
“Also recorded” adds a separate entry of the source.

How the values were obtained:
[1] = system: A. contortrix venom sPLA2; assay: sPLA2 chromogenic inhibition assay, A. contortrix venom; type: biochemical; details: chromogenic sPLA2 assay after 60 of incubation, read-out: IC50 for each venom inhibitor
V. berus venom sPLA2 = assay: sPLA2 chromogenic inhibition assay, V. berus venom; type: biochemical; details: chromogenic sPLA2 assay after 60 of incubation, read-out: IC50 for each venom inhibitor
[2] = system: C. terrificus venom sPLA2; assay: sPLA2 chromogenic inhibition assay, C. terrificus venom; type: biochemical; details: chromogenic sPLA2 assay after 60 of incubation, read-out: IC50 for each venom inhibitor
bee venom sPLA2 [3] = target: T1, bee venom sPLA2 (Apis mellifera, UniProt P00630); assay: biochemical; type: biochemical
[4] = system: venous human blood incubated with Boomslang (Dispholidus typus) venom; assay: Hemolysis of ex vivo human blood treated with Boomslang venom (FIG. 5B); type: cell-based; details: Compound 4 1 uM with or without soluble simvastatin 1 uM, 90 minutes
[5] = system: histamine production or release in human blood; assay: Plasma histamine in human blood; type: cell-based; details: human blood from a donor prone to LRR; 10 uM
Procedure: In this example, 3 cc human blood from a donor prone to LRR was collected and shipped to Quest on ice pursuant to Quest collection protocol 36586 and incubated with (a) Mannitol+Compound 4 (10 uM), (b) Varespladib (10 uM), or (c) Mannitol alone (excipient). Samples were processed for plasma histamine levels, compared with the Mannitol-only control.

[6] = system: boomslang venom or bee venom; assay: Venom-induced acute kidney injury in mice, boomslang venom or bee venom (FIG. 7); type: in vivo, mouse; details: sublethal envenomation; single dose at same time as venom; 24 hours
C. atrox venom sPLA2 = assay: sPLA2 chromogenic inhibition assay, C. atrox venom; type: biochemical; details: chromogenic sPLA2 assay after 60 of incubation, read-out: IC50 for each venom inhibitor
[7] = system: C. adamanteus venom sPLA2; assay: sPLA2 chromogenic inhibition assay, C. adamanteus venom; type: biochemical; details: chromogenic sPLA2 assay after 60 of incubation, read-out: IC50 for each venom inhibitor
V. russelli venom sPLA2 = assay: sPLA2 chromogenic inhibition assay, V. russelli venom; type: biochemical; details: chromogenic sPLA2 assay after 60 of incubation, read-out: IC50 for each venom inhibitor
bee venom sPLA2 [8] = target: T1, bee venom sPLA2; details: cited from earlier work
C. atrox venom MP = C. atrox venom MP inhibition; type: biochemical; details: 10 μM
E. carinatus venom MP = E. carinatus venom MP inhibition; type: biochemical; details: 10 μM
M. fulvius venom sPLA2 = M. fulvius venom sPLA2 inhibition; type: biochemical; details: 10 μM
[9] = system: Snake venom metalloprotease, C. atrox and E. carinatus; assay: Snake venom metalloprotease inhibition for C. atrox and E. carinatus; type: biochemical; details: 10 μM; range over both venoms
bee venom = assay: Survival of mice envenomated with bee venom; type: in vivo, CD-1 mice; details: 5 mice; bee venom 5 mg/kg IV; 25 mg/kg varespladib SQ immediately after envenomation
[10] = system: venous human blood incubated with M. Fulvius venom; assay: Hemolysis of ex vivo whole human blood treated with M. Fulvius venom (FIG. 5A); type: cell-based; details: inhibitor 1 uM with or without soluble simvastatin 1 uM, 90 minutes
[11] = system: whole bee (Apis mellifera) venom; assay: Acute kidney injury in mice after whole bee venom (FIG. 8); type: in vivo, mouse; details: single dose Varespladib (LY315920) with bee venom, then oral methylvarespladib (LY333013) ad libitum in diet; kidneys examined 36 hours

T1 sequence (P00630 34-167 limits assumed): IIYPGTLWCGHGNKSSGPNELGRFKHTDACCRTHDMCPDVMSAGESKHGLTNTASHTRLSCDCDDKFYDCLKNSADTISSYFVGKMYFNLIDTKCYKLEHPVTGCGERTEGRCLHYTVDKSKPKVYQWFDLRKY

| SMILES | IC50 [1] [nM] | IC50 (V. berus venom sPLA2) [nM] | inhibitory activity in vitro against bee venom sPLA2 (bee venom sPLA2 [3]) | C. atrox venom MP inhibition % effect (C. atrox venom MP) [%] | E. carinatus venom MP inhibition % effect (E. carinatus venom MP) [%] | M. fulvius venom sPLA2 inhibition % effect (M. fulvius venom sPLA2) [%] | Snake venom metalloprotease inhibition for C. atrox and E. carinatus [9] [%] | also measured |
| --- | --- | --- | --- | --- | --- | --- | --- | --- |
| NC(=O)c1ccc(Cc2ccccc2)cc1-c1cccc(CCC(=O)O)c1 [Compound 4, 3-(5′-Benzyl-2′-carbamoylbiphenyl-3-yl) propanoic acid] | 88 | 170 | very weak inhibitory activity; also recorded: virtually no effect | – | – | – | – | IC50 [2]: 670 nM; IC50 (bee venom sPLA2 [3]): > 70000 nM; anti-hemolytic activity [4]: anti-hemolytic activity; Plasma Histamine [5]: 10.1 ng/mL; signs of acute kidney injury (gross kidney appearance) [6]: comparably minimal signs of acute kidney injury |
| CCc1c(C(=O)C(N)=O)c2c(OCC(=O)OC)cccc2n1Cc1ccccc1 [Me-Varespladib] | 430 | 170 | very weak inhibitory activity; also recorded: not potent inhibitors | – | – | – | – | IC50 (C. atrox venom sPLA2): 200 nM; IC50 [7]: 360 nM; IC50 (V. russelli venom sPLA2): 80 nM; performance in vitro against bee venom sPLA2 in earlier studies (bee venom sPLA2 [8]): performed extremely poorly |
| CCC(C)(C)C(=O)O[C@H]1C[C@@H](C)C=C2C=C[C@H](C)[C@H](CC[C@@H]3C[C@@H](O)CC(=O)O3)[C@H]21 [SIMVASTATIN, Simvastatin] | – | – | – | 4.03 | −0.20 to 4.61 | 16.41 | −0.20 to 4.61 | – |
| CC[C@H](C)C(=O)O[C@H]1C[C@H](O)C=C2C=C[C@H](C)[C@H](CC[C@@H](O)C[C@@H](O)CC(=O)O)[C@H]21 [PRAVASTATIN, Pravastatin] | – | – | – | 2.27 | 4.02 | 6.9 | 2.27 to 4.02 | – |
| CCc1c(C(=O)C(N)=O)c2c(OCC(=O)O)cccc2n1Cc1ccccc1 [Varespladib, ((3-(2-Amino-1,2-dioxoethyl)-2-ethyl-1-(phenylmethyl)-1H-indol-4-yl)oxy)acetic acid] | 0.9 | 0.8 | very weak inhibitory activity; also recorded: not potent inhibitors | – | – | – | – | IC50 (C. atrox venom sPLA2): 0.7 nM; IC50 [7]: 0.8 nM; IC50 (V. russelli venom sPLA2): 0.4 nM; IC50 [2]: 21 nM; IC50 (bee venom sPLA2 [3]): 12000 to 18000 nM; higher IC50 against bee venom PLA2 as compared to snake venom PLA2 (bee venom sPLA2 [3]): 5-45,000 fold; survival compared to controls (bee venom): uniformly prolonged survival; anti-hemolytic activity (Hgb absorption spectra) [10]: remained unchanged with the addition of statin; Plasma Histamine [5]: 5.1 ng/mL; signs of acute kidney injury (gross kidney appearance) [6]: minimal signs of acute kidney injury; protection from AKI (pigment nephropathy, hyperemia) [11]: excellent protection from AKI; performance in vitro against bee venom sPLA2 in earlier studies (bee venom sPLA2 [8]): performed extremely poorly |
| O=C(O)C[C@H](O)C[C@H](O)/C=C/c1c(C2CC2)nc2ccccc2c1-c1ccc(F)cc1 [ITAVASTATIN, Pitavastatin] | – | – | – | 5.09 | 0.48 | – | 0.48 to 5.09 | – |
| CC[C@H](C)C(=O)O[C@H]1C[C@@H](C)C=C2C=C[C@H](C)[C@H](CC[C@@H]3C[C@@H](O)CC(=O)O3)[C@H]21 [LOVASTATIN, Lovastatin] | – | – | – | – | −1.89 | 11.09 | – | – |
| CC[C@H](C)C(=O)O[C@H]1CCC=C2C=C[C@H](C)[C@H](CC[C@@H]3C[C@@H](O)CC(=O)O3)[C@H]21 [MEVASTATIN, Mevastatin] | – | – | – | 7.17 | −1.89 to 3.82 | 16.29 | −1.89 to 7.17 | – |
